Results on ten molecules are retold here after US20090247559A1 (Exelixis, Inc., priority 2007, published 2009).

The structures appear in SMILES notation. pIC50: −log10 of the molar value. Like-named read-outs stand apart in the source and are kept apart here.

In general, pIC50 refers to −log10 of the IC50, conventionally taken in molar units.

One test addresses CDC7 (Homo sapiens, UniProt O00311). Put plainly: CDC7 inhibition, biochemical chemiluminescence assay (Kinase Glo, IC50 determination). In outline:
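CDC7 enzyme preincubated with compound 10 min at ambient temperature, then ATP mix in Tris Base added; reaction 90 min at 24-27 °C. Remaining ATP quantified by Kinase Glo luminescence to give IC50.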
(In Kinase-Glo more light means more ATP remaining.)

In test [1] the target is PIM (PIM-1, PIM-2, and/or PIM-3). Put plainly: PIM-1, PIM-2 and PIM-3 inhibition, biochemical chemiluminescence assays (Kinase Glo, IC50 determination). The following applies: Table 1 activity class; PIM refers to PIM-1, PIM-2, and/or PIM-3; read-out: PIM IC50 (Activity B).
A further test concerns the target CK2 (Homo sapiens, UniProt P68400). The test is described as follows: CK2 inhibition, biochemical chemiluminescence holoenzyme assay (Kinase Glo, IC50 determination). The following applies: Table 1 activity class; symbol given only if active; read-out: CK2 IC50 (Activity C). In outline: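 Holoenzyme CK2 assay; compounds pre-incubated with substrate and enzyme, then reacted 150 min at 24-27° C. Remaining ATP measured as luminescence with Kinase Glo, and IC50 derived from the signal.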

[2] abbreviates: Table 1 activity class, symbol given only if active, read-out: CDC7 IC50 (Activity A).
The mark [3] stands for this setting: compounds in Table 1, read-out: CDC7 IC50 value.

CK2, sequence (P68400 whole entry): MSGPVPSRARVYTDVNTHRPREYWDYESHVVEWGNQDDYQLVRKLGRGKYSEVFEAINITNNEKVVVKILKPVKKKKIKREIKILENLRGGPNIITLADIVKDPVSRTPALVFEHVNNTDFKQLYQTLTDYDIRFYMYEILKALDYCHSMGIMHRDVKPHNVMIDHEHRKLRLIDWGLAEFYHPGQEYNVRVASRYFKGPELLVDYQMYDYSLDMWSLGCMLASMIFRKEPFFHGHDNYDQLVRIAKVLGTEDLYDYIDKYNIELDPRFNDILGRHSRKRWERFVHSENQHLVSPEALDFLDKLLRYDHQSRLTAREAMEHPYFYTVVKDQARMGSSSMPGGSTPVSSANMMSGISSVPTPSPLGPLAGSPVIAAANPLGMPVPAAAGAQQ
CK2, sequence (P67870 whole entry partner): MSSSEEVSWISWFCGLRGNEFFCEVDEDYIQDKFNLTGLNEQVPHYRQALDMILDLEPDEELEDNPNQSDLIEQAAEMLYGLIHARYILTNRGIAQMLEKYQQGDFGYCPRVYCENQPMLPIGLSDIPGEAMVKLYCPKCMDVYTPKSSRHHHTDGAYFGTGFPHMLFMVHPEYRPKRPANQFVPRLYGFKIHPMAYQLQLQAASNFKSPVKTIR
CDC7, sequence (O00311 whole entry): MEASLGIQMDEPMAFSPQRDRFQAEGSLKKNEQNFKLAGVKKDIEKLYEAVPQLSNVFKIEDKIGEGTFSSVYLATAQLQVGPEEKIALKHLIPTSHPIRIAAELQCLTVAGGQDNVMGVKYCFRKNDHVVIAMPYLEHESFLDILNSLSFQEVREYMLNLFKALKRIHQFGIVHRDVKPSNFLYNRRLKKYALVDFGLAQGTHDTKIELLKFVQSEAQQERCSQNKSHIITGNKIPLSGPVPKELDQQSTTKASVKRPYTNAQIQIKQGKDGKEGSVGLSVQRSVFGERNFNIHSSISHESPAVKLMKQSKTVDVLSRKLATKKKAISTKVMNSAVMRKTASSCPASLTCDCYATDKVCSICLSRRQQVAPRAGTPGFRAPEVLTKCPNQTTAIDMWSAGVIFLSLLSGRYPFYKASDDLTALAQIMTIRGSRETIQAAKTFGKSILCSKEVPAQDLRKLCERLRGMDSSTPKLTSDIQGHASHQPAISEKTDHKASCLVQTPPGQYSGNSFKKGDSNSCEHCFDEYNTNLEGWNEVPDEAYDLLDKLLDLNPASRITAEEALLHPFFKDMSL
CDC7, sequence (Q9UBU7 whole entry partner): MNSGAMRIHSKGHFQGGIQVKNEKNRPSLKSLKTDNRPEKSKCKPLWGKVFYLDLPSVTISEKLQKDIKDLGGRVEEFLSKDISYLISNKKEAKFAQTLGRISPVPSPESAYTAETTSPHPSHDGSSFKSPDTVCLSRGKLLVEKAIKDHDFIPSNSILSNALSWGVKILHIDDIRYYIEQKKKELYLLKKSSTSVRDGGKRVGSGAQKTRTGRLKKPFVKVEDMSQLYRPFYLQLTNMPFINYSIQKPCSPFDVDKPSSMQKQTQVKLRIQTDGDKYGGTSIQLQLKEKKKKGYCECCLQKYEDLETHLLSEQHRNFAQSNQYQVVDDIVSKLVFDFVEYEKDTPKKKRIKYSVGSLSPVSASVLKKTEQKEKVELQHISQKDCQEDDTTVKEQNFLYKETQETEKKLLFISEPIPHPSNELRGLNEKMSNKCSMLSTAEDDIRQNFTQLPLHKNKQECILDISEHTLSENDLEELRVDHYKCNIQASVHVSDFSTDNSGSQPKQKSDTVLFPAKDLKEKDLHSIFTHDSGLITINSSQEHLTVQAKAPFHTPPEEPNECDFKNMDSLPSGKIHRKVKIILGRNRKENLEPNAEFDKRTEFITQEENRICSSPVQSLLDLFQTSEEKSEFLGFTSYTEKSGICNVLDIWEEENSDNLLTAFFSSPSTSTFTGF

As to `CN1CCC(NCc2ccc(-c3nc4c(oc5ccc(Br)cc54)c(=O)[nH]3)c(Cl)c2)CC1` [Compound 435, 8-bromo-2-(2-chloro-4-{[(1-methylpiperidin-4-yl)amino]methyl}phenyl)[1]benzofuro[3,2-d]pyrimidin-4(3H)-one], the pIC50 (at CDC7 (setting [2]); in test [1]; on CK2) was greater than 5.00 each time.

Turning to `CN1CCN(Cc2nc3c(oc4cc(O)c(Br)cc43)c(=O)[nH]2)CC1` [Compound 438, 8-bromo-7-hydroxy-2-[(4-methylpiperazin-1-yl)methyl][1]benzofuro[3,2-d]pyrimidin-4(3H)-one], the pIC50 (on CDC7 (setting [2]); in test [1]; at CK2) was greater than 5.00 in each case.

Turning to `Nc1ccc(C(=O)Nc2ccc(-c3nc4c(oc5ccc(Br)cc54)c(=O)[nH]3)c(Cl)c2)cn1` [Compound 439, 6-amino-N-[4-(8-bromo-4-oxo-3,4-dihydro[1]benzofuro[3,2-d]pyrimidin-2-yl)-3-chlorophenyl]pyridine-3-carboxamide], the pIC50 (on CDC7 (setting [2]); in test [1]; at CK2) was greater than 5.00 in each case.

Regarding `Cc1ccc2oc3c(=O)[nH]c(CN4CC[C@H](O)C4)nc3c2c1N` [Compound 440, 9-amino-2-{[(3S)-3-hydroxypyrrolidin-1-yl]methyl}-8-methyl[1]benzofuro[3,2-d]pyrimidin-4(3H)-one], the pIC50 (on CDC7 (setting [2]); in test [1]; at CK2) was greater than 5.00 throughout.

With `CSc1ccc2oc3c(=O)[nH]c(CN4CC[C@H](O)C4)nc3c2c1` [Compound 442, 2-{[(3S)-3-hydroxypyrrolidin-1-yl]methyl}-8-(methylthio)[1]benzofuro[3,2-d]pyrimidin-4(3H)-one], the pIC50 was greater than 5.00 at CDC7 (setting [2]), greater than 7.00 on CDC7 (setting [3]), greater than 5.00 in test [1] and greater than 5.00 on CK2.

As to `O=c1[nH]c(CN2CC[C@H](O)C2)nc2c1oc1ccc(NCCc3cccc(Cl)c3)cc12` [Compound 444, 8-{[2-(3-chlorophenyl)ethyl]amino}-2-{[(3S)-3-hydroxypyrrolidin-1-yl]methyl}[1]benzofuro[3,2-d]pyrimidin-4(3H)-one], the pIC50 (at CDC7 (setting [2]); in test [1]; at CK2) was greater than 5.00 throughout.

In the case of `COc1c(Br)ccc2oc3c(=O)[nH]c(CN4CC[C@H](O)C4)nc3c12` [Compound 447, 8-bromo-2-{[(3S)-3-hydroxypyrrolidin-1-yl]methyl}-9-(methyloxy)[1]benzofuro[3,2-d]pyrimidin-4(3H)-one], the pIC50 (at CDC7 (setting [2]); in test [1]; on CK2) was greater than 5.00 throughout.

Consider `COc1cccc2oc3c(=O)[nH]c(CN4CC[C@H](O)C4)nc3c12` [Compound 448, 2-{[(3S)-3-hydroxypyrrolidin-1-yl]methyl}-9-(methyloxy)[1]benzofuro[3,2-d]pyrimidin-4(3H)-one], for which the pIC50 (on CDC7 (setting [2]); in test [1]; on CK2) was greater than 5.00 in each case.

Consider `COc1ccc2oc3c(=O)[nH]c(CN4CC[C@H](O)C4)nc3c2c1` [Compound 451, 2-{[(3S)-3-hydroxypyrrolidin-1-yl]methyl}-8-(methyloxy)[1]benzofuro[3,2-d]pyrimidin-4(3H)-one], for which the pIC50 (at CDC7 (setting [2]); in test [1]; on CK2) was greater than 5.00 each time.

On to `O=c1c2oc3ccc(Br)cc3c2nc2n1CN1CCC[C@H]21` [Compound 452, (13bR)-11-bromo-1,2,3,13b-tetrahydro-7H-[1]benzofuro[3,2-d]pyrrolo[1′,2′:3,4]imidazo[1,5-a]pyrimidin-7-one], for which the pIC50 was greater than 5.00 on CDC7 (setting [2]), greater than 7.00 on CDC7 (setting [3]), greater than 5.00 in test [1] and greater than 5.00 at CK2.
